Source: ChEMBL document CHEMBL4118281, “Azoalkyl ether imidazo[2,1-b]benzothiazoles as potentially antimicrobial agents with novel structural skeleton” (2018)
≈ marks a conversion by molar mass, not a printed value. Calls of active or inactive are those of the source. No cut-off for these calls is given here.

How the values were obtained:
[1] = tested on: Saccharomyces cerevisiae; assay: Antifungal activity against Beer yeast after 24 hrs by two fold serial dilution based spectrophotometric analysis; assay type: functional
[2] = tested on: Staphylococcus aureus; assay: Antibacterial activity against methicillin-resistant Staphylococcus aureus N315 after 3 passages; assay type: functional
[3] = tested on: Cyberlindnera jadinii; assay: Antifungal activity against Candida utilis after 24 hrs by two fold serial dilution based spectrophotometric analysis; assay type: functional; details: Williopsis jadinii
[4] = tested on: Bacillus; assay: Antibacterial activity against Bacillus proteus ATCC 13315 after 24 hrs by micro broth dilution method; assay type: functional; details: ATCC 13315, 24 h
[5] = tested on: Aspergillus flavus; assay: Antifungal activity against Aspergillus flavus after 24 hrs by two fold serial dilution based spectrophotometric analysis; assay type: functional
[6] = tested on: Bacillus subtilis; assay: Antibacterial activity against Bacillus subtilis after 24 hrs by micro broth dilution method; assay type: functional
[7] = tested on: Shigella dysenteriae; assay: Antibacterial activity against Shigella dysenteriae after 24 hrs by micro broth dilution method; assay type: functional
[8] = tested on: Staphylococcus aureus; assay: Antibacterial activity against methicillin-resistant Staphylococcus aureus N315 after 1 passage; assay type: functional
[9] = tested on: Candida albicans; assay: Antifungal activity against Candida albicans after 24 hrs by two fold serial dilution based spectrophotometric analysis; assay type: functional
[10] = tested on: Staphylococcus aureus; assay: Bactericidal activity against methicillin-resistant Staphylococcus aureus N315 assessed as reduction in bacterial load at 4 times MIC up to 1 hr by time kill assay; assay type: functional
[11] = tested on: Staphylococcus aureus; assay: Antibacterial activity against methicillin-resistant Staphylococcus aureus N315 after 16 passages; assay type: functional, organism-based
[12] = tested on: Escherichia coli; assay: Antibacterial activity against Escherichia coli JM109 after 24 hrs by micro broth dilution method; assay type: functional; details: JM109, 24 h
[13] = tested on: Staphylococcus aureus; assay: Bactericidal activity against methicillin-resistant Staphylococcus aureus N315 assessed as reduction in bacterial load at 4 times MIC after 120 mins by time kill assay (reference value: 5.77 log10CFU/ml); assay type: functional
[14] = tested on: Staphylococcus aureus; assay: Antibacterial activity against methicillin-resistant Staphylococcus aureus N315 after 4 passages; assay type: functional
[15] = tested on: Pseudomonas aeruginosa; assay: Antibacterial activity against Pseudomonas aeruginosa after 24 hrs by micro broth dilution method; assay type: functional
[16] = tested on: Calf thymus DNA; assay: Binding affinity to calf thymus DNA assessed as hypsochromic shift by UV-Visible spectroscopic method; assay type: nucleic-acid assay; details: Bos taurus
[17] = tested on: Calf thymus DNA; assay: Binding affinity to calf thymus DNA assessed as hypochromic shift by UV-Visible spectroscopic method; assay type: nucleic-acid assay; details: Bos taurus
[18] = tested on: Staphylococcus aureus; assay: Bactericidal activity against methicillin-resistant Staphylococcus aureus N315 assessed as reduction in bacterial load at 4 times MIC after 200 mins by time kill assay (reference value: 9.84 log10CFU/ml); assay type: functional
[19] = tested on: Staphylococcus aureus; assay: Antibacterial activity against methicillin-resistant Staphylococcus aureus N315 after 8 passages; assay type: functional
[20] = tested on: Pichia norvegensis; assay: Antifungal activity against Candida mycoderma after 24 hrs by two fold serial dilution based spectrophotometric analysis; assay type: functional
[21] = tested on: Staphylococcus aureus; assay: Bactericidal activity against methicillin-resistant Staphylococcus aureus N315 assessed as reduction in bacterial load at 4 times MIC after 180 mins by time kill assay (reference value: 8.63 log10CFU/ml); assay type: functional
[22] = tested on: Escherichia coli; assay: Antibacterial activity against Escherichia coli DH52 after 24 hrs by micro broth dilution method; assay type: functional; details: DH52, 24 h
[23] = tested on: Staphylococcus aureus; assay: Antibacterial activity against methicillin-resistant Staphylococcus aureus N315 after 24 hrs by micro broth dilution method; assay type: functional; details: N315, 24 h
[24] = tested on: Micrococcus luteus; assay: Antibacterial activity against Micrococcus luteus ATCC 4698 after 24 hrs by micro broth dilution method; assay type: functional; details: NCTC 2665, 24 h
[25] = tested on: Staphylococcus aureus; assay: Bactericidal activity against methicillin-resistant Staphylococcus aureus N315 assessed as reduction in bacterial load at 4 times MIC after 160 mins by time kill assay (reference value: 7.47 log10CFU/ml); assay type: functional
[26] = tested on: Staphylococcus aureus; assay: Antibacterial activity against methicillin-resistant Staphylococcus aureus N315 after 5 passages; assay type: functional
[27] = tested on: Staphylococcus aureus; assay: Potency index, ratio of chloromycin MIC to compound MIC for methicillin-resistant Staphylococcus aureus N315; assay type: functional
[28] = tested on: Staphylococcus aureus; assay: Antibacterial activity against methicillin-resistant Staphylococcus aureus N315 after 7 passages; assay type: functional
[29] = tested on: Staphylococcus aureus; assay: Bactericidal activity against methicillin-resistant Staphylococcus aureus N315 assessed as reduction in bacterial load at 4 times MIC after 220 mins by time kill assay (reference value: 10.39 log10CFU/ml); assay type: functional
[30] = tested on: Staphylococcus aureus; assay: Potency index, ratio of norfloxacin MIC to compound MIC for methicillin-resistant Staphylococcus aureus N315; assay type: functional
[31] = tested on: Staphylococcus aureus; assay: Antibacterial activity against methicillin-resistant Staphylococcus aureus N315 after 2 passages; assay type: functional
[32] = tested on: Staphylococcus aureus; assay: Antibacterial activity against Staphylococcus aureus ATCC 25923 after 24 hrs by micro broth dilution method; assay type: functional; details: ATCC 25923, 24 h
[33] = tested on: Calf thymus DNA; assay: Binding affinity to calf thymus DNA assessed as DNA intercalation by UV-Visible spectroscopic method; assay type: nucleic-acid assay; details: Bos taurus
[34] = tested on: Salmonella typhi; assay: Antibacterial activity against Bacillus typhi after 24 hrs by micro broth dilution method; assay type: functional, Salmonella enterica subsp. enterica serovar Typhi; details: Salmonella enterica
[35] = tested on: Staphylococcus aureus; assay: Bactericidal activity against methicillin-resistant Staphylococcus aureus N315 assessed as reduction in bacterial load at 4 times MIC after 270 mins by time kill assay (reference value: 10.26 log10CFU/ml); assay type: functional
[36] = tested on: Staphylococcus aureus; assay: Bactericidal activity against methicillin-resistant Staphylococcus aureus N315 assessed as reduction in bacterial load at 4 times MIC after 240 mins by time kill assay (reference value: 10.42 log10CFU/ml); assay type: functional
[37] = tested on: Staphylococcus aureus; assay: Antibacterial activity against methicillin-resistant Staphylococcus aureus N315 after 6 passages; assay type: functional
[38] = tested on: Calf thymus DNA; assay: Inhibition of neutral red binding to calf thymus DNA by UV-Visible spectroscopic method; assay type: nucleic-acid assay; details: Bos taurus
[39] = tested on: Staphylococcus aureus; assay: Bactericidal activity against methicillin-resistant Staphylococcus aureus N315 assessed as reduction in bacterial load at 4 times MIC after 140 mins by time kill assay (reference value: 6.413 log10CFU/ml); assay type: functional

Cc1ncc([N+](=O)[O-])n1CCCOCc1c(-c2ccccc2)nc2sc3ccccc3n12
MIC [1]: 256 µg/mL (≈ 572 µM)
MIC [2]: 14 µM (≈ 6.27 µg/mL)
MIC [3]: 32 µg/mL (≈ 71.5 µM)
MIC [4]: 8 µg/mL (≈ 17.9 µM)
MIC [5]: 8 µg/mL (≈ 17.9 µM)
MIC [6]: 4 µg/mL (≈ 8.94 µM)
MIC [7]: 4 µg/mL (≈ 8.94 µM)
MIC [8]: 13 µM (≈ 5.82 µg/mL)
MIC [9]: 2 µg/mL (≈ 4.47 µM)
Activity [10]: >3 log10CFU/ml
Activity [11]: Active
MIC [12]: 4 µg/mL (≈ 8.94 µM)
Activity [13]: 5.77 log10CFU/ml
MIC [14]: 16 µM (≈ 7.16 µg/mL)
MIC [15]: 2 µg/mL (≈ 4.47 µM)
Activity [16]: Dose-dependent effect
Activity [17]: Active
Activity [18]: 1.74 log10CFU/ml
MIC [19]: 15 µM (≈ 6.71 µg/mL)
MIC [20]: 16 µg/mL (≈ 35.8 µM)
Activity [21]: 1.81 log10CFU/ml
MIC [22]: 4 µg/mL (≈ 8.94 µM)
MIC [23]: 2 µg/mL (≈ 4.47 µM)
MIC [24]: 32 µg/mL (≈ 71.5 µM)
Activity [25]: 1.98 log10CFU/ml
MIC [26]: 15 µM (≈ 6.71 µg/mL)
Ratio [27]: 4 - 8
MIC [28]: 15 µM (≈ 6.71 µg/mL)
Activity [29]: 1.66 log10CFU/ml
Ratio [30]: 4 - 8
MIC [31]: 13 µM (≈ 5.82 µg/mL)
MIC [32]: 8 µg/mL (≈ 17.9 µM)
Activity [33]: Active
MIC [34]: 1 µg/mL (≈ 2.23 µM)
Activity [35]: 1.81 log10CFU/ml
Activity [36]: 1.6 log10CFU/ml
MIC [37]: 15 µM (≈ 6.71 µg/mL)
inhibition [38]: Active
Activity [39]: 3.29 log10CFU/ml
